From US9193954B2, “Methods and compositions for mesenchymal stem cell proliferation” (priority 2011, dated 2015)

Assays:
Assay type in all cases: cell-based, human
[1] = test system: markers of undifferentiated stem cells, Sox2, Nanog, and Oct4; assay: RT-PCR of Sox2, Nanog, Oct4 in PEG-encapsulated BIO-treated hMSCs; details: for Nanog gene expression relative to untreated controls / Oct4 gene expression relative to untreated controls / Sox2 gene expression relative to untreated controls: 5 μM BIO
Experimental: RT-PCR was used to assess gene expression of hMSCs over time. At days: 0 (before BIO treatment), 1, 3, 6, 19, 29, 34, 37, and 41, samples were lysed and total RNA was isolated (ENZA Total RNA Kit, Omega). Reverse transcription was performed using the iScript cDNA Synthesis Kit (Bio-Rad). The reverse transcription reaction was incubated at 25° C. for 5 min, 42° C. for 30 min, and terminated at 85° C. for 5 min. PCR was performed using a CFX96 Real-Time PCR System (Bio-Rad), monitoring sybrgreen products (SsoFastEvaGreen Master Mix, Bio-Rad). Primers for β-actin, sex determining region Y-box 2 (Sox2), Nanog homobox (Nanog), and octamer-binding transcription factor 4 (Oct4), core-binding factor subunit alpha-1 (Cbfa1, also known as Runx2), sex determining region Y-box 9 (Sox9), and peroxisome proliferator-activated receptor gamma (PPARγ) were used (Table 2). The PCR parameters used were as follows: hold at 95° C. for 5 min, followed by 40 cycles of: 95° C. for 15 sec denaturation, 60° C. (β-actin, Sox2, Sox9), or 57° C. (Nanog, Oct4, Cbfa1), or 55° C. (PPARγ) for 60 sec annealing, and 72° C. for 20 sec extension. Threshold cycle (CT) analysis was used to quantify PCR products normalized to the cellular housekeeping gene β-actin. Relative gene quantification was performed using the Pfaffl Method, taking into account the variation between primer efficiencies.
A 10 wt % solution of PEGDM was prepared in phosphate buffered saline (PBS) with 2.0 mM acryloyl-PEG-RGDS. The photoinitiator lithium phenyl-2,4,6-trimethylbenzoylphosphinate (LAP) was synthesized using conventional techniques and added at a final concentration of 0.05 wt %. Trypsinized hMSCs were centrifuged to form pellets and counted. The PEG macromer solution was added to the cell pellet, and volumes were adjusted to achieve a final cell concentration of 25 million cells/mL. Using a sterile 1 mL syringe with the tip removed as a mold, 40 μL of PEG/cell solution was added and exposed to long-wavelength 365 nm light (5 mW/cm^2 intensity) for 10 min at room temperature. After photopolymerization was complete, the cell/hydrogel disks were removed from the syringes and placed in 24-well tissue culture plates (Greiner Bio-One, Monroe, N.C.) with growth media. The constructs were cultured up to 3 weeks at 37° C. and 5% CO2 with media changes occurring every three days.
Encapsulated hMSC viability, BIO treatment, and assessment of gene expression was performed as described in Section 2.3 with exception of cell lysate collection. For assessment of gene expression hMSC-PEG constructs were homogenized in lysis buffer and centrifuged to pellet polymerized PEG. The supernatant was then collected for analysis.

hMSCs [2] = assay: alamarBlue metabolic assay of hMSC proliferation after BIO dosing (Example 1); details: for effect on hMSC population (alamarBlue): 24 hr dosing
Experimental: FIG. 1. Proliferative effect of BIO after 24 hr dosing; 0 μM (-□-, grey squares), 2 μM (-∘-, open circles), 5 μM (-▴-, black triangles), 10 μM (-X-, black crosses). Proliferation was assessed using alamarBlue metabolic assay. Error bars shown are standard error (n=3).
The small molecule GSK3β inhibitor 6-bromoindirubin-3′-oxime was synthesized as previously described (Polychronopoulos et al., J Med Chem. 2004; 47(4):935-46). It is also commercially available (such as from Sigma). The molecule was solubilized in dimethyl sulfoxide (DMSO) to specified concentrations. hMSCs were plated at a density of 5,000 cell/cm2 in 24-well tissue culture plates. Cells were allowed to become adherent for a period of 24 hrs before BIO was introduced. 10 μL of BIO in DMSO were added to 1 mL of culture media so that the final concentrations of 2, 5, and 10 μM were achieved. […] Culture continued over 33 days with media being replaced every three days. An alamarBlue cell viability assay was performed on days: −1 (before BIO treatment), 0, 4, 8, 12, 14, 17, 23, 26, 28, and 33. Cell population was normalized to alamarBlue readings after the initial period of 24 hr BIO dosing.

hMSCs [3] = assay: LIVE/DEAD confocal imaging of two-dimensional BIO-treated hMSC cultures; details: no detectable dead cells
Experimental: FIG. 4 Schematic representation of 41 day hMSC monolayer culture after 24 hr exposure to BIO-containing media (A). Cells were trypsinized and manually counted on days 0, 1, 3, 6, 19, 27, 34, 37, and 41 and shown to undergo a dose-dependent, BIO-mediated increase in proliferation (B).
hMSC cell layer thickness was measured using the z-directional controls of a FV1000 Olympus Laser Scanning Confocal Microscope. On days 1, 14, and 40 cells, seeded on optically clear glass bottom 24-well culture plates (MatTek, Ashland, Mass.) were stained using a fluorescent LIVE/DEAD Viability/Cytotoxicity kit (Invitrogen). The focal plane of the microscope was adjusted to the cell-plate interface and set to zero. Using the z-directional controls the focal plane was raised until the live fluorescently stained cells were no longer visible at which point the cell layer thickness was recorded.

Compound: O=C1Nc2cc(Br)ccc2/C1=C1/Nc2ccccc2/C1=N\O [BIO, 6-bromoindirubin-3′-oxime]
- time at which Sox2, Nanog, and Oct4 expression returned to basal levels ([1]; PEG hydrogel-encapsulated hMSCs): ~18 days
- Nanog gene expression relative to untreated controls ([1]; day 1, PEG-encapsulated): 2.4 fold
- Oct4 gene expression relative to untreated controls ([1]; day 1, PEG-encapsulated): 3.5 fold
- Sox2 gene expression relative to untreated controls ([1]; day 1, PEG-encapsulated): 2.2 fold
- Nanog gene expression relative to untreated controls ([1]; day 12, PEG-encapsulated): 2.7 fold
- Oct4 gene expression relative to untreated controls ([1]; day 12, PEG-encapsulated): 4.3 fold
- Sox2 gene expression relative to untreated controls ([1]; day 12, PEG-encapsulated): 4.1 fold
- effect on hMSC population (alamarBlue) (hMSCs [2]; BIO 2-5 μM): dose dependent proliferative response
- effect on hMSC population (alamarBlue) (hMSCs [2]; BIO concentrations below 2 μM): did not have a noticeable effect
- effect of continual dosing on hMSCs (hMSCs [2]; continual dosing with BIO, parallel study (data not shown)): complete cell death by day 5
- live cells (LIVE/DEAD imaging) (hMSCs [3]): ~100%
